# Like-named read-outs stand apart in the source and are kept apart here. Marks after values point to notes of the source that are not given here.
# Experiments:
# [1] = tested on: methicillin-resistant S. aureus (MRSA); test: microbe, parasite or virus in culture; format: cell-based, Staphylococcus aureus; conditions: for zone of inhibition at 20 µg/disc: Staphylococcus aureus, MRSA, read-out: Average zones of growth inhibition of MRSA (USF-652-659, 919-920); for zone of inhibition at 20 µg/disc / Zones of growth inhibition, MRSA: 24 h, 37° C.
# S. aureus (ATCC 25923) [2] = conditions: MSSA ATCC 25923; data from ref. 6 (PenG, 2g) or ref. 52 (vancomycin); cited from earlier work
# MRSA (ATCC 43300) = conditions: cited from earlier work
# S. aureus (ATCC 25923) [3] = test: microbe, parasite or virus in culture; format: cell-based, Staphylococcus aureus; conditions: for zone of inhibition at 20 µg/disc: Staphylococcus aureus, ATCC25923
# S. aureus (ATCC 25923) [4] = test: Agar dilution minimum inhibitory concentration (MIC), S. aureus; format: cell-based, Staphylococcus aureus; conditions: Staphylococcus aureus
# [5] = tested on: E. coli (K12; ATCC 23590); test: Kirby-Bauer zones of inhibition, E. coli; format: cell-based, Escherichia coli; conditions: for Zone of Inhibition (mm), E. coli, zones of partial inhibition / Zone of Inhibition (mm), E. coli: K12 strain, ATCC 23590; for Zone of Inhibition (mm), E. coli, zones of partial inhibition: number in parentheses; for Zone of Inhibition (mm), E. coli: number outside parentheses
# [6] = biological target: T1, FabH derived from E. coli (ecFabH) (Escherichia coli, UniProt P0A6R0); test: FabH enzyme assay (coupled trichloroacetic acid precipitation assay), ecFabH; format: biochemical; conditions: for inhibition at 5 µM: 5 μM of test compound, read-out: Percent inhibition of FabH derived from E. coli, ecFabH (%); for Percent inhibition of ecFabH: 1 μM of test compound; for IC50: 15 min preincubation at 23° C., duplicate assays, read-out: IC50 against ecFabH
# T1 construct: polyhistidine (N); made in house; host or cells: E. coli
# T1 sequence (P0A6R0 1-317): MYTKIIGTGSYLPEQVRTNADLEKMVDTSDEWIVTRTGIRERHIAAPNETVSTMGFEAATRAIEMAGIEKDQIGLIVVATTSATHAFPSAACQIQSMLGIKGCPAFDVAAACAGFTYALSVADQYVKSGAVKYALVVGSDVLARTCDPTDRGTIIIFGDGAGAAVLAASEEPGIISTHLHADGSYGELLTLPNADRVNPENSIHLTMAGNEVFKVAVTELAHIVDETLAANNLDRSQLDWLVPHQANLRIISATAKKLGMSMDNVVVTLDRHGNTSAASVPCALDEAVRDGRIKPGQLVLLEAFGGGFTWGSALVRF
# B. anthracis (USF 848) [7] = test: microbe, parasite or virus in culture; format: cell-based, Bacillus anthracis; conditions: Bacillus anthracis, 24 h, 37° C.
# [8] = tested on: E. coli (K12; ATCC 23590); test: Minimum inhibitory concentration (MIC), E. coli; format: cell-based; conditions: Escherichia coli, ATCC23590, read-out: MIC (μg/mL) against E. coli
# B. anthracis (USF 848) [9] = test: microbe, parasite or virus in culture; format: cell-based, Bacillus anthracis; conditions: Bacillus anthracis, read-out: Minimum inhibitory concentration (MIC) against B. anthracis (USF 848)
# [10] = biological target: FabH derived from M. tuberculosis (mtFabH) (Mycobacterium tuberculosis, UniProt P9WNG3); conditions: for Percent inhibition of mtFabH: 10 µM; for IC50: read-out: IC50 against mtFabH
# FabH derived from M. tuberculosis (mtFabH), sequence (P9WNG3 whole entry): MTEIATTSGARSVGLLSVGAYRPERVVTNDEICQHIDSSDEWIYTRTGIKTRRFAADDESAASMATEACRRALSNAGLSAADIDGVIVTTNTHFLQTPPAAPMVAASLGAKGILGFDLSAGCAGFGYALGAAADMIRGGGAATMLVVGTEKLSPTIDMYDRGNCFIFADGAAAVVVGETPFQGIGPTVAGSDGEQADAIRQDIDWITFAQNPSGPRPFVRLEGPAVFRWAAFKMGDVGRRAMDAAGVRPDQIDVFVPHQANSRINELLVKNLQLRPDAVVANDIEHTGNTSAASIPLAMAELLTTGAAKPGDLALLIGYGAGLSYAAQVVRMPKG
# S. aureus (ATCC 25923) [11] = conditions: MSSA ATCC 25923; data taken from ref. 6; cited from earlier work
# [12] = tested on: methicillin-resistant S. aureus (MRSA); conditions: MRSA ATCC 43300; data taken from ref. 6; cited from earlier work
# [13] = ATCC25923, serial dilution in 24-well plate, NCCLS, read-out: Minimum inhibitory concentration (MIC) against S. aureus (ATCC 25923)
# [14] = 24 h, 37° C., read-out: Zones of growth inhibition of S. aureus (ATCC 25923)
# [15] = 24 h, 37° C., read-out: Zones of growth inhibition of S. aureus (ATCC 25923), areas of partial inhibition
# [16] = read-out: Zones of growth inhibition of B. anthracis (USF 848)
# [17] = read-out: Zones of growth inhibition of B. anthracis (USF 848), areas of partial growth inhibition
# [18] = ATCC 25923 / MSSA, read-out: MIC (MSSA)
# [19] = MRSA ATCC 43300, data taken from ref. 6
structure (smiles),measurement,setting,value
"CN[C@H](CC(C)C)C(=O)N[C@H]1C(=O)N[C@@H](CC(N)=O)C(=O)N[C@H]2C(=O)N[C@H]3C(=O)N[C@H](C(=O)N[C@H](C(=O)O)c4cc(O)cc(O)c4-c4cc3ccc4O)[C@H](O)c3ccc(c(Cl)c3)Oc3cc2cc(c3O[C@@H]2O[C@H](CO)[C@@H](O)[C@H](O)[C@H]2O[C@H]2C[C@](C)(N)[C@H](O)[C@H](C)O2)Oc2ccc(cc2Cl)[C@H]1O [Vanc., Vancomycin, reference compound]",Zone (MRSA),[1],22 mm
same,MIC (MSSA),S. aureus (ATCC 25923) [2],0.78^d μg/mL
same,MIC (MRSA),"MRSA (ATCC 43300); MRSA 67, as reported by ref. 52",0.39^d μg/mL
same,Zone (MSSA),S. aureus (ATCC 25923) [3],27 mm
"CCSSc1ccc([N+](=O)[O-])cc1 [Compound 38b, Ethyl p-nitrophenyl Disulfide]",zone of inhibition at 20 µg/disc,[1],38 mm
same,MIC,S. aureus (ATCC 25923) [4]; [13],32 µg/mL
same,zone of inhibition at 20 µg/disc,S. aureus (ATCC 25923) [3]; [14],47 mm
same,zone of inhibition at 20 µg/disc,S. aureus (ATCC 25923) [3]; [15],54 mm
same,"Zone of Inhibition (mm), E. coli, zones of partial inhibition",[5],23 mm
same,"Zone of Inhibition (mm), E. coli",[5],15 mm
same,inhibition at 5 µM,[6],98%
same,zone of inhibition at 20 µg/disc,B. anthracis (USF 848) [7]; [16],56 mm
same,zone of inhibition at 20 µg/disc,B. anthracis (USF 848) [7]; [17],67 mm
same,MIC,[8],16 µg/mL
same,MIC,B. anthracis (USF 848) [9],0.25 µg/mL
"CC(C)SSc1ccc([N+](=O)[O-])cc1 [Compound 38c, Isopropyl p-nitrophenyl disulfide]",Zone (MRSA),[1],70 mm
same,zone of inhibition at 20 µg/disc,[1],75 mm
same,MIC,S. aureus (ATCC 25923) [4]; [18],0.8 µg/mL
same,MIC,S. aureus (ATCC 25923) [4]; [13],0.4 µg/mL
same,Zone (MSSA),S. aureus (ATCC 25923) [3],47 mm
same,zone of inhibition at 20 µg/disc,S. aureus (ATCC 25923) [3]; [14],68 mm
same,zone of inhibition at 20 µg/disc,S. aureus (ATCC 25923) [3]; [15],85 mm
same,"Zone of Inhibition (mm), E. coli, zones of partial inhibition",[5],(11) mm
same,inhibition at 5 µM,[6],98.5%
same,zone of inhibition at 20 µg/disc,B. anthracis (USF 848) [7]; [16],71 mm
same,MIC,[8],96 µg/mL
same,MIC,B. anthracis (USF 848) [9],< 0.125 µg/mL
"CCCSSc1ccc([N+](=O)[O-])cc1 [Compound 38e, p-Nitrophenyl n-propyl Disulfide]",zone of inhibition at 20 µg/disc,[1],38 mm
same,MIC,S. aureus (ATCC 25923) [4]; [13],24 µg/mL
same,zone of inhibition at 20 µg/disc,S. aureus (ATCC 25923) [3]; [14],36 mm
same,zone of inhibition at 20 µg/disc,S. aureus (ATCC 25923) [3]; [15],43 mm
same,"Zone of Inhibition (mm), E. coli, zones of partial inhibition",[5],21 mm
same,"Zone of Inhibition (mm), E. coli",[5],16 mm
same,inhibition at 5 µM,[6],91%
same,zone of inhibition at 20 µg/disc,B. anthracis (USF 848) [7]; [16],49 mm
same,zone of inhibition at 20 µg/disc,B. anthracis (USF 848) [7]; [17],57 mm
same,MIC,[8],64 µg/mL
same,MIC,B. anthracis (USF 848) [9],1 µg/mL
COC1C(=O)N(SC)C1c1ccccc1Cl (stereo not shown) [Compound 2a],Percent inhibition of mtFabH,[10],75%
same,Percent inhibition of ecFabH,[6],89%
CCCCSSCCNC(=O)CCNC(=O)[C@H](O)C(C)(C)COP(=O)(O)OP(=O)(O)OC[C@H]1O[C@@H](n2cnc3c(N)ncnc32)[C@H](O)[C@@H]1OP(=O)(O)O [Compound 25d],IC50,[10],> 300 µM
same,IC50,[6],> 300 µM
CSSCCNC(=O)CCNC(=O)[C@H](O)C(C)(C)COP(=O)(O)OP(=O)(O)OC[C@H]1O[C@@H](n2cnc3c(N)ncnc32)[C@H](O)[C@@H]1OP(=O)(O)O [Compound 25a],IC50,[10],> 300 µM
same,"Zones of growth inhibition, MRSA",[1],0 mm
same,"Zones of growth inhibition, S. aureus","S. aureus (ATCC 25923) [3]; 24 h, 37° C.",0 mm
same,IC50,[6],57.1 ± 4.48 µM
"CCC(C)SSc1ccc([N+](=O)[O-])cc1 (stereo not shown) [Compound 38d, Sec-Butyl p-nitrophenyl Disulfide]",Zone (MRSA),[1],54 mm
same,zone of inhibition at 20 µg/disc,[1],54 mm
same,MIC,S. aureus (ATCC 25923) [4]; [18],0.4 µg/mL
same,MIC,S. aureus (ATCC 25923) [4]; [13],0.8 µg/mL
same,Zone (MSSA),S. aureus (ATCC 25923) [3],67 mm
same,zone of inhibition at 20 µg/disc,S. aureus (ATCC 25923) [3]; [14],47 mm
same,zone of inhibition at 20 µg/disc,S. aureus (ATCC 25923) [3]; [15],68 mm
same,"Zone of Inhibition (mm), E. coli, zones of partial inhibition",[5],(10) mm
same,inhibition at 5 µM,[6],96%
same,zone of inhibition at 20 µg/disc,B. anthracis (USF 848) [7]; [16],56 mm
same,zone of inhibition at 20 µg/disc,B. anthracis (USF 848) [7]; [17],62 mm
same,MIC,[8],128 µg/mL
same,MIC,B. anthracis (USF 848) [9],< 0.125 µg/mL
"CC1(C)S[C@@H]2[C@H](NC(=O)Cc3ccccc3)C(=O)N2[C@H]1C(=O)O [PenG., penicillin G, reference compound]",Zone (MSSA),S. aureus (ATCC 25923) [11],33 mm
same,MIC (MSSA),S. aureus (ATCC 25923) [2],0.03 µg/mL
same,MIC (MRSA),MRSA (ATCC 43300); [19],64 µg/mL
same,Zone (MRSA),[12],14 mm
CCCCCCCCSSCCNC(=O)CCNC(=O)[C@H](O)C(C)(C)COP(=O)(O)OP(=O)(O)OC[C@H]1O[C@@H](n2cnc3c(N)ncnc32)[C@H](O)[C@@H]1OP(=O)(O)O [Compound 25e],IC50,[10],23.2 ± 4.6 µM
same,IC50,[6],> 300 µM
"CSSc1cccc([N+](=O)[O-])c1 [Compound 43a, Methyl m-nitrophenyl Disulfide]",zone of inhibition at 20 µg/disc,[1],15 mm
same,MIC,S. aureus (ATCC 25923) [4]; [13],16 µg/mL
same,Zones of growth inhibition of S. aureus (ATCC 25923),"S. aureus (ATCC 25923) [3]; 24 h, 37° C.",27 (36) mm
same,"Zones of growth inhibition of S. aureus (ATCC 25923), areas of partial inhibition","S. aureus (ATCC 25923) [3]; 24 h, 37° C.",27 (36) mm
same,zone of inhibition at 20 µg/disc,S. aureus (ATCC 25923) [3]; [14],27 mm
same,zone of inhibition at 20 µg/disc,S. aureus (ATCC 25923) [3]; [15],36 mm
same,zone of inhibition against E. coli,[5]; full or partial not stated,10 mm
same,zone of inhibition at 20 µg/disc,B. anthracis (USF 848) [7]; [16],43 mm
same,MIC,B. anthracis (USF 848) [9],2 µg/mL
CCC(C)SSCCNC(=O)CCNC(=O)[C@H](O)C(C)(C)COP(=O)(O)OP(=O)(O)OC[C@H]1O[C@@H](n2cnc3c(N)ncnc32)[C@H](O)[C@@H]1OP(=O)(O)O (stereo partly shown) [Compound 25c],IC50,[10],> 300 µM
same,"Zones of growth inhibition, MRSA",[1],0 mm
same,"Zones of growth inhibition, S. aureus","S. aureus (ATCC 25923) [3]; 24 h, 37° C.",0 mm
same,IC50,[6],> 300 µM
CCCCCCCCCCSSCCNC(=O)CCNC(=O)[C@H](O)C(C)(C)COP(=O)(O)OP(=O)(O)OC[C@H]1O[C@@H](n2cnc3c(N)ncnc32)[C@H](O)[C@@H]1OP(=O)(O)O [Compound 25f],IC50,[10],2.6 ± 1.6 µM
same,IC50,[6],> 300 µM
"CCCCSSc1ccc([N+](=O)[O-])cc1 [Compound 38f, n-Butyl p-nitrophenyl Disulfide]",zone of inhibition at 20 µg/disc,[1],28 mm
same,MIC,S. aureus (ATCC 25923) [4]; [13],32 µg/mL
same,zone of inhibition at 20 µg/disc,S. aureus (ATCC 25923) [3]; [14],41 mm
same,zone of inhibition at 20 µg/disc,S. aureus (ATCC 25923) [3]; [15],53 mm
same,"Zone of Inhibition (mm), E. coli, zones of partial inhibition",[5],22 mm
same,"Zone of Inhibition (mm), E. coli",[5],15 mm
same,inhibition at 5 µM,[6],93%
same,zone of inhibition at 20 µg/disc,B. anthracis (USF 848) [7]; [16],44 mm
same,zone of inhibition at 20 µg/disc,B. anthracis (USF 848) [7]; [17],52 mm
same,MIC,[8],96 µg/mL
same,MIC,B. anthracis (USF 848) [9],1 µg/mL
CCC(C)SN1C(=O)C(OC)C1c1ccccc1Cl (stereo not shown) [Compound 2g],Percent inhibition of mtFabH,[10],4%
same,Zone (MSSA),S. aureus (ATCC 25923) [11],32^c mm
same,MIC (MSSA),S. aureus (ATCC 25923) [2],0.25 µg/mL
same,MIC (MRSA),MRSA (ATCC 43300); [19],0.25 µg/mL
same,Zone (MRSA),[12],34 mm
same,Percent inhibition of ecFabH,[6],30%

# — US8722937B2 (priority 2006, dated 2014)
